Assays:
[1] = test system: T025OV ovarian cancer patient-derived organoid; test: 7-day organoid colony formation, ATP content (Cell Titer Glo 3D); assay type: cell-based; settings: Homo sapiens, 168 h, T025OV PDO, 7 days, geometric mean
Excerpt: The FU-97 (Cat #JCRB1074) human gastric cancer cell line and the Kuramochi (Cat #JCRB0098) and RMUG-S(Cat #IFO50320) human ovarian cancer cell lines were obtained from the National Institutes of Biomedical Innovation, Health and Nutrition's Japanese Collection of Research Bioresources (JCRB) (Ibaraki City, Osaka, Japan). The HCC1419 (Cat #CRL-2326) and HCC1428 (Cat #CRL-2327) human breast cancer cell lines and the NCI-H1650 (Cat #CRL-5883) and NCI-H1792 (Cat #CRL-5895) non-small cell lung cancer cell lines were obtained from ATCC (Manassas, Virginia, USA). The human gastric cancer cell lines GCIY (Cat #RCB0555) and SNU601 (Cat #CSC-C9686L) were obtained from the Riken Bioresource Research Center (Tsukuba, Ibaraki, Japan) and Creative Bioarray (Shirley, NY, USA), respectively. The T025OV ovarian cancer organoid model was developed from a patient-derived xenograft (PDX) model, which was developed from primary serous ovarian carcinoma cells obtained from Discovery Life Sciences (Huntsville, AL, USA, SN #350627149). […]
Compound 1 IC50 values for inhibition of organoid colony formation were determined by measuring ATP levels after 7 days of treatment utilizing Cell Titer Glo 3D reagent (Promega, Madison, WI, USA Cat #G9683). […] Luminescence values (RLU) were read-out using a Clariostar plate reader (BMG Labtech, Cary, NC). […]

[2] = test system: HCC1428 breast cancer xenograft; settings: monotherapy or in combinations
Protocol: The CDX model was established by subcutaneous inoculation of HCC1428 cells into the right flank of BALB/c nude mice. Mice were injected subcutaneously with estradiol benzoate one day prior to cell inoculation and then twice per week thereafter to promote optimal growth of the ER^+ cell line. Groups of 9 animals each were established by random assignment. Tumor volumes and body weights were measured twice weekly. Tumor volume and percent tumor growth inhibition (TGI) or percent tumor regression (REG) were calculated as described in Example 4A. End-of-study Day […] TGI or REG was calculated relative to the Day 25 mean TV from the vehicle group. Statistical analysis of the Day 25 tumor volumes was performed using the Brown-Forsythe and Welch ANOVA test.
Compound treatment was initiated when the mean tumor volume of each group was 184 mm^3. Compound 1 was administered to mice orally for 25 days once daily (QD) at a dose of 100 mg/kg based on body weight. Abemaciclib was administered orally at a dose of 30 mg/kg QD for 25 days based on body weight and fulvestrant was administered subcutaneously at a dose of 5 mg/mouse once per week (QW). Following the dosing period of 25 days, an observation period was conducted for Group 5 (Compound 1+abemaciclib), Group 7 (abemaciclib+fulvestrant), and Group 8 (Compound 1+abemaciclib+fulvestrant) with continued twice weekly measurement of tumor volume and body weight measurements but no additional administration of compound.

Structure (SMILES): [2H]C([2H])(c1cnn(C)c1)N1C(=O)c2cc(S(=O)(=O)NC3(C)CC3)ccc2N2C1=NC[C@H]2C [Compound 1, (R)-1-methyl-4-((1-methyl-1H-pyrazol-4-yl)methyl-d2)-N-(1-methylcyclopropyl)-5-oxo-1,2,4,5-tetrahydroimidazo[1,2-a]quinazoline-7-sulfonamide]
- IC50 ([1]; read-out: IC50 inhibition of ATP content): 1.07 µM
- IC90 ([1]; read-out: IC90 inhibition of ATP content): 10.7 µM
- tolerability [2]: well tolerated

Reference: patent US20260272936A1, “TREATMENT OF CANCER WITH A PARG INHIBITOR” (858 Therapeutics, Inc., priority 2023, published 2026)
